# Experimental data as given in patent US4374765A, “Mammalian collagenase inhibitors” (American Home Products Corporation, priority 1981, dated 1983).
# Residues, ends and D or L forms follow the SMILES beside them.
# Tested on: collagenase
# Assay: collagenase inhibition, acetyl 14C collagen hydrolysis (procedure of Sellers et al.)
# Type: biochemical
# Conditions: 2mM inhibitor, 35° C., 5 to 18 hours, Tris-CaCl2 pH 7.4, vs control devoid of inhibitor
# Protocol: The inhibitory effect of the compounds of this invention toward collagenase was determined following the procedure of Sellers et al., Biochem. J. 167 353-360 (1977) whereby the 2mM of the inhibitor being tested is incubated at 35° C. for from 5 to 18 hours (depending upon the potency of the collagenase) with collagen and collagenase (buffered with Tris®--CaCl2; pH 7.4). The collagen is acetyl ^14 C collagen. The samples are centrifuged and an aliquot removed for assay on a scintillation counter. Because native collagen forms insoluble fibrils under the test conditions, the supernatant liquid contains radioactivity as a measure of hydrolysis. The collagenase activity in the presence of 2mM inhibitor is compared to activity in a control devoid of hinibitor and the results reported as percent inhibition of collagenase activity. Each of the compounds of this invention have been established as active collagenase inhibitors by the test procedure.
smiles,measurement,value
CC(=O)NCC(=O)N[C@@H](CS)C(=O)NCC(=O)N[C@@H](CCC(=O)O)C(=O)N[C@@H](CCC(=O)O)C(N)=O [CH3 CO-Gly-L-Cys-Gly-L-Glu-L-Glu-NH2] (Ac-GCGEE-NH2),Percent collagenase inhibition,80%
